Test results: article PMC3382171 (PLoS ONE, 2012)

Columns and labels:
Assay in all cases: biochemical
Set-up in all cases: Invitrogen SelectScreen kinase panel, percent inhibition at 1 uM, ATP at Km
Details in all cases: read-out: Invitrogen KSS %Inh at 1 µM
FES (FPS) = FES (FPS) (Homo sapiens, UniProt P07332)
Experimental: (§1) The METi and RAFi were screened against kinase panels (SelectScreen, Invitrogen; University of Dundee, Division of Signal Transduction Therapy, UK; Upstate Biotechnology/Millipore, Billerica, MA). In these selectivity assays the concentration of ATP was set to the Km value of ATP for each kinase tested to allow for a relative potency comparison between the various kinases. The compounds were tested at 1 µM final concentration. […] Supplementary file pone.0039653.s002.pdf: Figure S2 Kinase Selectivity Screen of RAFi. (A) Kinase selectivity screen (KSS) performed at University of Dundee (Division of Signal Transduction Therapy). Values in % inhibition of phosphorylation given 1 µM of RAFi compared to control. (B) KSS performed at Invitrogen (Selectscreen Service) compared to control. Values in % inhibition of phosphorylation given 1 µM of RAFi. (C) Cell based dose response kinase inhibition of indicated kinases by RAFi. (PDF) Click here for additional data file.

PLK3 = PLK3 (Homo sapiens, UniProt Q9H4B4)
Experimental: as §1

SGK (SGK1) = SGK (SGK1) (Homo sapiens, UniProt O00141)
Experimental: as §1

PRKCZ (PKC zeta) = PRKCZ (PKC zeta) (Homo sapiens, UniProt Q05513)
Experimental: as §1

RPS6KA4 (MSK2) = RPS6KA4 (MSK2) (Homo sapiens, UniProt O75676)
Experimental: as §1

SYK = SYK (Homo sapiens, UniProt P43405)
Experimental: as §1

IRAK4 = IRAK4 (Homo sapiens, UniProt Q9NWZ3)
Experimental: as §1

ABL2 (Arg) = ABL2 (Arg) (Homo sapiens, UniProt P42684)
Experimental: as §1

FLT3 D835Y = FLT3 D835Y (Homo sapiens, UniProt P36888, D835Y)
Experimental: as §1

EPHA2 = EPHA2 (Homo sapiens, UniProt P29317)
Experimental: as §1

EPHB2 = EPHB2 (Homo sapiens, UniProt P29323)
Experimental: as §1

GSK3B (GSK3 beta) = GSK3B (GSK3 beta) (Homo sapiens, UniProt P49841)
Experimental: as §1

RPS6KA1 (RSK1) = RPS6KA1 (RSK1) (Homo sapiens, UniProt Q15418)
Experimental: as §1

CSNK1D (CK1 delta) = CSNK1D (CK1 delta) (Homo sapiens, UniProt P48730)
Experimental: as §1

AKT1 (PKB alpha) = AKT1 (PKB alpha) (Homo sapiens, UniProt P31749)
Experimental: as §1

MAPK9 (JNK2) = MAPK9 (JNK2) (Homo sapiens, UniProt P45984)
Experimental: as §1

ROCK1 = ROCK1 (Homo sapiens, UniProt Q13464)
Experimental: as §1

EEF2K = EEF2K (Homo sapiens, UniProt O00418)
Experimental: as §1

MINK1 = MINK1 (Homo sapiens, UniProt Q8N4C8)
Experimental: as §1

EPHA4 = EPHA4 (Homo sapiens, UniProt P54764)
Experimental: as §1

FRAP1 (mTOR) = FRAP1 (mTOR) (Homo sapiens, UniProt P42345)
Experimental: as §1

TYRO3 (RSE) = TYRO3 (RSE) (Homo sapiens, UniProt Q06418)
Experimental: as §1

Sequence of PRKCZ (PKC zeta) (Q05513 whole entry): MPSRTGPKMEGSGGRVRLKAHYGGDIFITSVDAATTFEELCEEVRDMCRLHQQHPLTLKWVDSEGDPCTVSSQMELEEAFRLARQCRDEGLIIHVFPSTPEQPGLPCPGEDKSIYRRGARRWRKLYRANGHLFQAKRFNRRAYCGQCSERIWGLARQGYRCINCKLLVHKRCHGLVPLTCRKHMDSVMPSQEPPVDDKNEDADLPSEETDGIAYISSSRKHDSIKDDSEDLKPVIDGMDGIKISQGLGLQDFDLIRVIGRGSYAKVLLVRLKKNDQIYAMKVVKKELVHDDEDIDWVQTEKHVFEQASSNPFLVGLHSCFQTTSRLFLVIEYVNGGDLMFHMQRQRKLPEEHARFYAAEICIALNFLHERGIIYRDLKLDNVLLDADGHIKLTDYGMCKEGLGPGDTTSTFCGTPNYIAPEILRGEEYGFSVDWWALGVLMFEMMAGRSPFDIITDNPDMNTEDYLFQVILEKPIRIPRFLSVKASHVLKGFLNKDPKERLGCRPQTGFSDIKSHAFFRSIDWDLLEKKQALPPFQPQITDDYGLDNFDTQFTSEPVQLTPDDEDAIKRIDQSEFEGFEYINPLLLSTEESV
Sequence of EEF2K (O00418 whole entry): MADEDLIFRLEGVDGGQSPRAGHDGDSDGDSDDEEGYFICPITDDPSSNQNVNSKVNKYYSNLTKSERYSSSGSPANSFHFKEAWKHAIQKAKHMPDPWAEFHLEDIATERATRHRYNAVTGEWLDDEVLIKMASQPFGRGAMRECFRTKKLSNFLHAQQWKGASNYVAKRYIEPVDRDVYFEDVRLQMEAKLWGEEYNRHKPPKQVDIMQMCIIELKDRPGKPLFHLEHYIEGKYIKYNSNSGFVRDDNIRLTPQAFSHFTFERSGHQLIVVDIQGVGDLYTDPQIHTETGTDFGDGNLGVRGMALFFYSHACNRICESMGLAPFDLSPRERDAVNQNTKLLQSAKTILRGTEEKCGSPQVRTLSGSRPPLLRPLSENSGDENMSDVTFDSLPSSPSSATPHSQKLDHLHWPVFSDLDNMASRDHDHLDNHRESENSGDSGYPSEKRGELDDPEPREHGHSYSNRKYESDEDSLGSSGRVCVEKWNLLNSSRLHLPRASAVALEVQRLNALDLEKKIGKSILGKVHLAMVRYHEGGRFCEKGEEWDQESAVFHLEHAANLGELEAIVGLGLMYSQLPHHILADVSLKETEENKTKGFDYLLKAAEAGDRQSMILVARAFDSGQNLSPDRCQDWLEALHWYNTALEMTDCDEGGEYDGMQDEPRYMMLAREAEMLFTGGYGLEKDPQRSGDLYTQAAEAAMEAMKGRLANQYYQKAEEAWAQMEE
Sequence of MINK1 (Q8N4C8 whole entry): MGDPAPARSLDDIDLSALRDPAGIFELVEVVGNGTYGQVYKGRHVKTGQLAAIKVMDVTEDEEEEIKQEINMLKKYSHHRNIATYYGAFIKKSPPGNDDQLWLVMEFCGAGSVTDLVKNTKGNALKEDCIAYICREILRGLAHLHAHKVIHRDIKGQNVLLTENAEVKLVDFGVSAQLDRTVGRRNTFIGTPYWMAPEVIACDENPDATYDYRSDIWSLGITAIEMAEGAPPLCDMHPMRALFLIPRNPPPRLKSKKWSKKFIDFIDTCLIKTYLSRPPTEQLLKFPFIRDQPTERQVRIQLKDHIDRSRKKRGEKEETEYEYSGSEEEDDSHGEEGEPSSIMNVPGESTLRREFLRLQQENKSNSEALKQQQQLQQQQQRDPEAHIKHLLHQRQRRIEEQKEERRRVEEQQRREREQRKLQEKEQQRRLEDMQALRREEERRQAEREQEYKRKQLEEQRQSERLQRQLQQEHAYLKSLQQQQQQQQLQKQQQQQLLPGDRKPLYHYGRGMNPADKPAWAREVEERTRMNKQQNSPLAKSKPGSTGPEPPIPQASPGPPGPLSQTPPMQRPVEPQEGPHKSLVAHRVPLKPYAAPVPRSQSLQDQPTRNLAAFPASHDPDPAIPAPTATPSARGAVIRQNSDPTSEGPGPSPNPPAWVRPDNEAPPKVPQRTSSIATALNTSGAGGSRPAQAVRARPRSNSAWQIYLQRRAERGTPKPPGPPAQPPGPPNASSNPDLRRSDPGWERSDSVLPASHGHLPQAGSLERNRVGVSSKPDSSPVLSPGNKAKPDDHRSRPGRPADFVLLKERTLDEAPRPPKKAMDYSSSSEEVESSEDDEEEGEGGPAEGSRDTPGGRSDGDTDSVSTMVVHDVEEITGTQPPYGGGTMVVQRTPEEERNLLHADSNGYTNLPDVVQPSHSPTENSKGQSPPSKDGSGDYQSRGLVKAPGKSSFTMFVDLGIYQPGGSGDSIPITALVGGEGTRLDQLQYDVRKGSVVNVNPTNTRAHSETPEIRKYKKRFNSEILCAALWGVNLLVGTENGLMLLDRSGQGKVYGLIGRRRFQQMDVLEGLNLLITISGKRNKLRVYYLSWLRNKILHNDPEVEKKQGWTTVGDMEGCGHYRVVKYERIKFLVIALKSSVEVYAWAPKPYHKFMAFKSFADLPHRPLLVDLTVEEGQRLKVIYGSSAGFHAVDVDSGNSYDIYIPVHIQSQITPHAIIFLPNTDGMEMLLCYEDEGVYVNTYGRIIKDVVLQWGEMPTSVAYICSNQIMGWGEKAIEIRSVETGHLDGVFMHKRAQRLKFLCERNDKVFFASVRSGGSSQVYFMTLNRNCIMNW
Sequence of ABL2 (Arg) (P42684 whole entry): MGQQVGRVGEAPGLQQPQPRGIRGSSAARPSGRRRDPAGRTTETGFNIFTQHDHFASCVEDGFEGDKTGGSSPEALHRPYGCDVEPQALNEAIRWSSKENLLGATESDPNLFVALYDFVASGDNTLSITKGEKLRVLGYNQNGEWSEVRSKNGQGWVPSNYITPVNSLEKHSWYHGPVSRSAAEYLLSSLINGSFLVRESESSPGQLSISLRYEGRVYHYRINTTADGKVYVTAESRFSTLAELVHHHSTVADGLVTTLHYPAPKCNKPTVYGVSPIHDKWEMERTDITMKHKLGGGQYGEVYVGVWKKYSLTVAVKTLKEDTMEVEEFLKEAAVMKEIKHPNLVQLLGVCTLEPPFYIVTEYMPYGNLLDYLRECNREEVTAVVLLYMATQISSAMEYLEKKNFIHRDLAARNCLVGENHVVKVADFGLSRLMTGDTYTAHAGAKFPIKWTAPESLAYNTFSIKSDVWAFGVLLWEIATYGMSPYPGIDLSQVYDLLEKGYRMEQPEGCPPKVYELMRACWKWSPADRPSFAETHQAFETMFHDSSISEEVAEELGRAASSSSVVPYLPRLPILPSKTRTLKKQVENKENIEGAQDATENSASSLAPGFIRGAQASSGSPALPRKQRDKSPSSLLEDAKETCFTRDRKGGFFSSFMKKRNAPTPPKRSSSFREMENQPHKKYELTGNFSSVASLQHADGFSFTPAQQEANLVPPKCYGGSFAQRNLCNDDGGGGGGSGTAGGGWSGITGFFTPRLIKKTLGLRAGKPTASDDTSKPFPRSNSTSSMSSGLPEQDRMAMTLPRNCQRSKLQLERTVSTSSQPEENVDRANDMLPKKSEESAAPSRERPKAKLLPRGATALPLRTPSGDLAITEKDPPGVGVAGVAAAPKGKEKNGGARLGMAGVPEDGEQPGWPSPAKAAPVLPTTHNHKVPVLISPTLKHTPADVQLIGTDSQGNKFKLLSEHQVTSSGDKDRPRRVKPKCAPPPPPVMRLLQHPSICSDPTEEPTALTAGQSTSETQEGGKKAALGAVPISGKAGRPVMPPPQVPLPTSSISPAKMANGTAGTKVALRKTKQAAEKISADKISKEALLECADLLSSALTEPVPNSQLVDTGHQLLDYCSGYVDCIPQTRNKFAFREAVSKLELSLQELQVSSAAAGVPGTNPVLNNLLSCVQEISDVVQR
Sequence of RPS6KA1 (RSK1) (Q15418 whole entry): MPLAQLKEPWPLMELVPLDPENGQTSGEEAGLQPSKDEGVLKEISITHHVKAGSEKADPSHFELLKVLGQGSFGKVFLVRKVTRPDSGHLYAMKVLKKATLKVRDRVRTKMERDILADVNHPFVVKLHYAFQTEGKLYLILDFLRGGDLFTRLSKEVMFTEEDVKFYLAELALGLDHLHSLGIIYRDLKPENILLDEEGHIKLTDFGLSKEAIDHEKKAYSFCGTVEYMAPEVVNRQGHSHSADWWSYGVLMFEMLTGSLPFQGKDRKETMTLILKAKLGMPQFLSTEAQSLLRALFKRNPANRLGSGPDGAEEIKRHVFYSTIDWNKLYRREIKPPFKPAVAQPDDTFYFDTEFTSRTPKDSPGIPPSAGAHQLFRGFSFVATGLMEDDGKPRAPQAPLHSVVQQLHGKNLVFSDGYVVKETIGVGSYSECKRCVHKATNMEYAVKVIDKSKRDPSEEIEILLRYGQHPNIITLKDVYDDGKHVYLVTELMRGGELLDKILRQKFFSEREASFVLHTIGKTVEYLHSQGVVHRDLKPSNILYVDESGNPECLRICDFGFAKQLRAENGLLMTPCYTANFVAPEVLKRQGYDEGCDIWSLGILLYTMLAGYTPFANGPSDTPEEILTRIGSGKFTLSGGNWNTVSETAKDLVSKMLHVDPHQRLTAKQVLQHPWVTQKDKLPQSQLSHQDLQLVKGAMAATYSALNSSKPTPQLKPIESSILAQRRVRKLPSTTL
Sequence of IRAK4 (Q9NWZ3 whole entry): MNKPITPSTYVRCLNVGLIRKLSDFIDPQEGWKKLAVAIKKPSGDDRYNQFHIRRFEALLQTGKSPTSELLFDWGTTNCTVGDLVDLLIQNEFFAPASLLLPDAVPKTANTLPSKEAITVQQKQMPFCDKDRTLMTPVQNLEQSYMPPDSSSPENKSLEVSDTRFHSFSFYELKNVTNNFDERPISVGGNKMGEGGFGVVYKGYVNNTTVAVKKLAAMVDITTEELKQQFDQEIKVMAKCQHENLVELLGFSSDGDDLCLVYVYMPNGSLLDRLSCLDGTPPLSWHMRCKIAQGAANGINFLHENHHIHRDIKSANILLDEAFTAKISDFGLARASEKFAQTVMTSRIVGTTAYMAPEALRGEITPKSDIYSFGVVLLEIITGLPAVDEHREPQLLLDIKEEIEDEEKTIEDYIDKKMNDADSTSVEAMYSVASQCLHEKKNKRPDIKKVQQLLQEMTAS

N#CCCNc1nccc(-c2cn(CC(F)F)nc2-c2cnc3[nH]ccc3c2)n1 [RAFi, PF-04880594] gave an inhibition at 1 µM (FES (FPS)) of -11%, an inhibition at 1 µM (PLK3) of 4% and an inhibition at 1 µM (SGK (SGK1)) of 7%. For the same molecule, the inhibition at 1 µM (PRKCZ (PKC zeta)) was -7%, the inhibition at 1 µM (RPS6KA4 (MSK2)) was 5% and the inhibition at 1 µM (SYK) was -35%. For the same molecule, the inhibition at 1 µM (IRAK4) was -16%, the inhibition at 1 µM (ABL2 (Arg)) was -1% and the inhibition at 1 µM (FLT3 D835Y) was 57%. For the same molecule, the inhibition at 1 µM (EPHA2) was -2%, the inhibition at 1 µM (EPHB2) was 3% and the inhibition at 1 µM (GSK3B (GSK3 beta)) was 23%. The inhibition at 1 µM (RPS6KA1 (RSK1)) was 6%, the inhibition at 1 µM (CSNK1D (CK1 delta)) was 95% and the inhibition at 1 µM (AKT1 (PKB alpha)) was 5%. It also gave an inhibition at 1 µM (MAPK9 (JNK2)) of 101%, an inhibition at 1 µM (ROCK1) of 4% and an inhibition at 1 µM (EEF2K) of 14%. The inhibition at 1 µM (MINK1) was 8%, the inhibition at 1 µM (EPHA4) was 1% and the inhibition at 1 µM (FRAP1 (mTOR)) was -7%. The inhibition at 1 µM (TYRO3 (RSE)) was 10%.
